# Data from US20140128431A1, “PHARMACEUTICAL COMPOSITION WITH IMPROVED BIOAVAILABILITY, SAFETY AND TOLERABILITY” (priority 2012, published 2014).
# Key:
# [1] = Caco-2 assay (permeability); type: in vitro ADME; conditions: human
# Description: (§1) The compound is moderately permeable as determined with the Caco-2 assay value of 4.5×10-6 cm/s. Targeted high doses/frequency of dosing for this series of compounds, led to the categorization of Compound A as BCS class IV compound (low solubility/low permeability).
# [2] = Aqueous solubility of crystalline Compound A at physiological pHs; type: physicochemical; conditions: aqueous media at physiological pHs (pH 1.5-8.0), aqueous buffer, crystalline form
# Description: as §1
structure (smiles),measurement,setting,value
"COc1ccc(-c2cc(C(C)(C)C)c(OC)c3cc(-c4ccc(NS(C)(=O)=O)cc4)cnc23)c(=O)[nH]1 [Compound A, N-{4-[6-tert-Butyl-5-methoxy-8-(6-methoxy-2-oxo-1,2-dihydro-pyridin-3-yl)-quinolin-3-yl]-phenyl}-methanesulfonamide]",Papp,[1],4.5 ×10⁻⁶ cm/s
same,solubility,[2],< 1 µg/mL
